From paper PMC11152041, “Tricarbonyl rhenium(I) complexes with 8-hydroxyquinolines: structural, chemical, antibacterial, and anticancer characteristics” (RSC Advances, 2024)
Converted amounts (≈) assume the structure as drawn. Where two headings read alike, the source gives them in different places.

Tests used:
[1] = tested on: E. coli ATCC25922; assay: Broth microdilution MIC/MBC (ISO 20776-1); type: cell-based, Escherichia coli
Procedure: (§1) Bacterial strains and cell lines were obtained from the American Type Culture Collection (ATCC).[59] […] Antimicrobial activity was tested in Müeller Hinton (MH) II broth (Becton Dickinson). For anticancer activity assay, the following reagents from Merk were used: 3-(4,5-dimethylthiazol-2-yl)-2,5-diphenyltetrazolium bromide (MTT), sodium dodecyl sulfate (SDS) and HCl. The solubilized formazan product was spectrophotometrically quantified in a Power Wave XS (Bio Tek, Winooski, VT, USA) microplate reader. The HL-60 and PC-3 cells were grown in RPMI-1640 medium with stable glutamine (Biowest) supplemented with 10% (v/v) of heat-inactivated fetal bovine serum (FBS, Biowest) and 1% (v/v) of antibiotic–antimycotic solution (Biowest). The SKOV-3 cells were grown in McCoy's 5A medium with L-glutamine (Biowest) supplemented with 10% (v/v) heat-inactivated FBS, and 1% (v/v) antibiotic–antimycotic solution. The MCF-7 cells were grown in Eagle's MEM (Minimal Essential Medium) medium with stable glutamine (Biowest), supplemented with 10% (v/v) heat-inactivated FBS 1% (v/v) MEM non-essential amino acids (Biowest), 1% (v/v) antibiotic–antimycotic solution, and 1 mM sodium pyruvate (Merck). The MCF-10A cells were grown in Ham's F-12K (Kaighn's) Medium with stable glutamine (Gibco) supplemented with 5% (v/v) heat-inactivated FBS, 1% (v/v) MEM non-essential amino acids, 1% (v/v) antibiotic–antimycotic solution, 5 μg mL^−1 insulin, 0.04 μg mL^−1 hydrocortisone (Merck), and 15 ng mL^−1 human Epidermal Growth Factor (hEGF, PeproTech).
(§2) The in vitro antibacterial activity was determined according to ISO 20776-1.[88] Among the tested microorganisms were Gram-negative rods, E. coli ATCC25922 and P. aeruginosa ATCC27853, and Gram-positive cocci, S. aureus ATCC29213 and E. faecalis ATCC29212. The selected bacterial species represented the most common etiologic agents of human infections and are used for quality control of antimicrobial susceptibility testing.[89] The test procedure included the determination of MICs and MBCs of complexes and their free ligands. MIC and MBC determinations of ciprofloxacin, as the reference antibiotic, were also performed. All compounds were dissolved in DMSO to reach the maximum 512 mg L^−1 concentration. […] The assay consisted of preparing 2-fold dilutions of the substances in a liquid growth medium MH II and inoculating them with a standardized suspension of microorganisms at a McFarland density of 0.5 (≈10^8 CFU mL^−1). The culture plates were incubated at 35 °C for 24 h. The lowest concentration of the compound inhibiting visible bacterial growth was specified as MIC, and the concentration that reduced bacterial growth by >99.99% after counting live bacteria on the plates compared to the positive control was defined as MBC.

[2] = tested on: P. aeruginosa ATCC27853; assay: Broth microdilution MIC/MBC (ISO 20776-1); type: cell-based, Pseudomonas aeruginosa
Procedure: as §1, §2

[3] = tested on: S. aureus ATCC29213; assay: Broth microdilution MIC/MBC (ISO 20776-1); type: cell-based, Staphylococcus aureus
Procedure: as §1, §2

[4] = tested on: E. faecalis ATCC29212; assay: Broth microdilution MIC/MBC (ISO 20776-1); type: cell-based, Enterococcus faecalis
Procedure: as §1, §2

[5] = tested on: HL-60 cells; assay: MTT cytotoxicity assay; type: cell-based, human
Procedure: (§3) The cytotoxicities for studied compounds were evaluated against leukemia cells (HL-60), as well as ovarian (SKOV-3), prostate (PC-3), and breast (MCF-7) cancer cell lines. The potential selectivity of these compounds towards cancer cells was assessed by determination of their cytotoxicities towards breast non-cancerous cells (MCF-10A). For comparison, cisplatin was added to the cytotoxicity assays.
as §1
(§4) The cells were cultured in 96-well plates and incubated with the tested compound for 24 h and 48 h. All experiments were performed in exponentially growing cultures. The 0.03 M solutions of the compounds in DMSO were appropriately diluted using culture media. The maximal final concentration of DMSO in each well was 0.1%. The cytotoxicity of the compounds was measured by determining cell viability with a colorimetric test based on 3-(4,5-dimethylthiazol-2-yl)-2,5-diphenyltetrazolium bromide (MTT). MTT stock solution was added to each well to a final concentration of 0.5 mg mL^−1 and incubated for 4 h at 37 °C; following formazan crystals were dissolved by the addition of sodium dodecyl sulfate (SDS) solution (10% SDS in 0.001 M HCl). MTT and SDS were added directly to the cell culture. The compound's IC50 values (concentration required to reduce the viability of cells by 50% compared with the control cells) were calculated from the data obtained with the MTT assay.

[6] = tested on: MCF-7 cells; assay: MTT cytotoxicity assay; type: cell-based, human; conditions: for IC50: read-out: IC50 ± SD; for selectivity: IC50 for normal cells times higher than for breast cancer cells: MCF-10A versus MCF-7
Procedure: as §3, §1, §4

[7] = tested on: PC-3 cells; assay: MTT cytotoxicity assay; type: cell-based, human; conditions: read-out: IC50 ± SD
Procedure: as §3, §1, §4

[8] = tested on: SKOV-3 cells; assay: MTT cytotoxicity assay; type: cell-based, human; conditions: for IC50: read-out: IC50 ± SD
Procedure: as §3, §1, §4

[9] = tested on: MCF-10A cells; assay: MTT cytotoxicity assay; conditions: for IC50: read-out: IC50 ± SD
Procedure: as §3, §1, §4

[10] = Escherichia coli, E. coli ATCC25922, >99.99% reduction of growth, read-out: MBC
[11] = Escherichia coli, E. coli ATCC25922, MH II broth, 35 °C, 24 h, read-out: MIC
[12] = Pseudomonas aeruginosa, P. aeruginosa ATCC27853, >99.99% reduction of growth, read-out: MBC
[13] = Pseudomonas aeruginosa, P. aeruginosa ATCC27853, MH II broth, 35 °C, 24 h, read-out: MIC
[14] = Staphylococcus aureus, S. aureus ATCC29213, >99.99% reduction of growth, read-out: MBC
[15] = Staphylococcus aureus, S. aureus ATCC29213, MH II broth, 35 °C, 24 h, read-out: MIC
[16] = Enterococcus faecalis, E. faecalis ATCC29212, >99.99% reduction of growth, read-out: MBC
[17] = Enterococcus faecalis, E. faecalis ATCC29212, MH II broth, 35 °C, 24 h, read-out: MIC
[18] = HL-60, 24 h, MTT, read-out: IC50 ± SD
[19] = MCF-10A (non-cancerous), 24 h, MTT, * precipitation of the complex
[20] = MCF-10A (non-cancerous), 48 h, MTT, * precipitation of the complex

O=C(O)c1cn(C2CC2)c2cc(N3CCNCC3)c(F)cc2c1=O [CIP, ciprofloxacin, reference compound]
MBC [1, 10]: 4 µg/mL (≈ 12.1 µM) | MIC [1, 11]: < 0.5 µg/mL | MBC [2, 12]: 8 µg/mL (≈ 24.1 µM) | MIC [2, 13]: 1 µg/mL (≈ 3.02 µM) | MBC [3, 14]: 1 µg/mL (≈ 3.02 µM) | MIC [3, 15]: < 0.5 µg/mL | MBC [4, 16]: 8 µg/mL (≈ 24.1 µM) | MIC [4, 17]: 2 µg/mL (≈ 6.04 µM)

Oc1ccc(Cl)c2cccnc12 [ClHQ, 5-chloro-8-hydroxyquinoline, reference compound]
MBC [1, 10]: > 512 µg/mL | MIC [1, 11]: 16 µg/mL (≈ 89.1 µM) | MBC [2, 12]: > 512 µg/mL | MIC [2, 13]: 256 µg/mL (≈ 1430 µM) | MBC [3, 14]: 32 µg/mL (≈ 178 µM) | MIC [3, 15]: 8 µg/mL (≈ 44.5 µM) | MBC [4, 16]: < 0.5 µg/mL | MIC [4, 17]: < 0.5 µg/mL | IC50 ([5]; Homo sapiens, HL-60, 24 h, MTT, read-out: IC50 ± SD): 1.7 ± 0.1 µM | IC50 ([5]; Homo sapiens, HL-60, 48 h, MTT, read-out: IC50 ± SD): 1.6 ± 0.4 µM | IC50 ([5]; Homo sapiens, HL-60, incubation time not stated in the text (24 and 48 h), read-out: IC50): < 2 µM | IC50 ([6]; Homo sapiens, MCF7, MCF-7, 24 h, MTT): 32 ± 8 µM | IC50 ([6]; Homo sapiens, MCF7, MCF-7, 48 h, MTT): 13 ± 5 µM | selectivity: IC50 for normal cells times higher than for breast cancer cells [6]: at least 3 times | IC50 ([7]; Homo sapiens, PC-3, 24 h, MTT): 25 ± 3 µM | IC50 ([7]; Homo sapiens, PC-3, 48 h, MTT): 39 ± 3 µM | IC50 ([8]; Homo sapiens, SK-OV-3, SKOV-3, 24 h, MTT): > 100 µM | IC50 ([8]; Homo sapiens, SK-OV-3, SKOV-3, 48 h, MTT): 42 ± 7 µM | IC50 ([9]; Homo sapiens, MCF-10A, 24 h): > 100 µM | IC50 ([9]; Homo sapiens, MCF-10A, 48 h): 70 ± 1 µM

Oc1cccc2cccnc12 [HQ, 8-hydroxyquinoline]
MBC ([1]; Escherichia coli, ATCC25922): > 512 µg/mL | MIC ([1]; Escherichia coli, ATCC25922, 24 h): 32 µg/mL (≈ 220 µM) | MBC ([2]; Pseudomonas aeruginosa, ATCC27853): > 512 µg/mL | MIC ([2]; Pseudomonas aeruginosa, ATCC27853, 24 h): 256 µg/mL (≈ 1760 µM) | MBC ([3]; Staphylococcus aureus, ATCC29213): 64 µg/mL (≈ 441 µM) | MIC ([3]; Staphylococcus aureus, ATCC29213, 24 h): 16 µg/mL (≈ 110 µM) | MBC ([4]; Enterococcus faecalis, ATCC29212): 32 µg/mL (≈ 220 µM) | MIC ([4]; Enterococcus faecalis, ATCC29212, 24 h): 2 µg/mL (≈ 13.8 µM) | IC50 ([5]; Homo sapiens, HL-60, 24 h, read-out: IC50 ± SD): 2.2 ± 0.2 µM | IC50 ([5]; Homo sapiens, HL-60, 48 h, read-out: IC50 ± SD): 2 ± 0.2 µM | IC50 ([6]; Homo sapiens, MCF7, 24 h): 24 ± 6 µM | IC50 ([6]; Homo sapiens, MCF7, 48 h): 7 ± 2 µM | selectivity: IC50 for normal cells times higher than for breast cancer cells [6]: at least 3 times | IC50 ([7]; Homo sapiens, PC-3, 24 h): 18 ± 2 µM | IC50 ([7]; Homo sapiens, PC-3, 48 h): 29 ± 3 µM | IC50 ([8]; Homo sapiens, SK-OV-3, 24 h): > 100 µM | IC50 ([8]; Homo sapiens, SK-OV-3, 48 h): 29 ± 5 µM | IC50 ([9]; Homo sapiens, MCF-10A, 24 h): > 100 µM | IC50 ([9]; Homo sapiens, MCF-10A, 48 h): > 100 µM

N.N.[Cl][Pt][Cl] [cisplatin, reference compound]
IC50 [5, 18]: 46 ± 1 µM | IC50 ([7]; PC-3, 24 h, MTT): 58 ± 6 µM | IC50 ([7]; PC-3, 48 h, MTT): 20 ± 2 µM | IC50 ([8]; SKOV-3, 24 h, MTT): > 100 µM | IC50 ([8]; SKOV-3, 48 h, MTT): > 100 µM | activity ([8]; SKOV-3, incubation time not given): no action | IC50 / activity on normal cells ([9]; MCF-10A, incubation time not given): no action | IC50 [9, 19]: > 100 µM | IC50 [9, 20]: > 100 µM

[C-]#[O+].[C-]#[O+].[C-]#[O+].[Re][O]c1cccc2cccnc12.c1c[nH]cn1 [complex 1, [Re(CO)3(Q)Him]]
MBC ([1]; E. coli ATCC25922, >99.99% reduction of growth): 256/256 mg L^−1 | MIC ([1]; E. coli ATCC25922, MH II broth, 35 °C, 24 h): 256/256 mg L^−1 | MBC ([2]; P. aeruginosa ATCC27853, >99.99% reduction of growth): > 512 µg/mL | MIC ([2]; P. aeruginosa ATCC27853, MH II broth, 35 °C, 24 h): 128 µg/mL | MBC ([3]; S. aureus ATCC29213, >99.99% reduction of growth): > 512 µg/mL | MIC ([3]; S. aureus ATCC29213, MH II broth, 35 °C, 24 h): 256 µg/mL | MBC ([4]; E. faecalis ATCC29212, >99.99% reduction of growth): > 512 µg/mL | MIC ([4]; E. faecalis ATCC29212, MH II broth, 35 °C, 24 h): 64 µg/mL | IC50 [5, 18]: 4.3 ± 0.2 µM | IC50 ([5]; HL-60, 48 h, MTT, read-out: IC50 ± SD): 4 ± 1 µM | IC50 ([6]; MCF-7, 24 h, MTT): 34 ± 4 µM | IC50 ([6]; MCF-7, 48 h, MTT): 30 ± 7 µM | IC50 ([7]; PC-3, 24 h, MTT): 28 ± 6 µM | IC50 ([7]; PC-3, 48 h, MTT): 27 ± 4 µM | IC50 ([8]; SKOV-3, 24 h, MTT): 36 ± 5 µM | IC50 ([8]; SKOV-3, 48 h, MTT): 39 ± 3 µM | IC50 [9, 19]: 39 ± 1 µM | IC50 [9, 20]: 24 ± 1 µM
